According to article PMC12287315 (Nature Communications, 2025):

Legend:
GPR139 / Gα11 = assay: G protein BRET assay, Gα11 activation; assay type: cell-based, human; settings: in words; for GPR139 coupling activity with Gα11: 10 µM
GPR139 [1] = target: T1, GPR139 (Homo sapiens, UniProt Q6DWJ6); assay: CalFluxVTN BRET calcium assay, GPR139-transfected HEK293T/17 cells; assay type: cell-based; settings: in words
T1 sequence (Q6DWJ6 1-353): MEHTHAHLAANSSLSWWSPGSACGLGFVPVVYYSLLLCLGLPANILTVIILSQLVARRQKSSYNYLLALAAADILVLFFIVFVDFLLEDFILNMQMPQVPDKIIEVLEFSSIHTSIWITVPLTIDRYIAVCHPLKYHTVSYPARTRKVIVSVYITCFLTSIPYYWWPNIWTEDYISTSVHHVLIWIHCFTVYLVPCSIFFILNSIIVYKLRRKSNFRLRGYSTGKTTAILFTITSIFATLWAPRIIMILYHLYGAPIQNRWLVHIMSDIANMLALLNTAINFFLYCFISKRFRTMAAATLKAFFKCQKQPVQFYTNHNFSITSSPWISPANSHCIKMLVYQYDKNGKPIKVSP

GPR139 [2] = target: T1, GPR139; assay type: binding; settings: in words
GPR139 / GαoA = assay: G protein BRET assay, GαoA activation; assay type: cell-based, human; settings: 10 µM; in words
MHb neurons [3] = assay type: cell-based, mouse
[4] = test system: GPR139-SmBit / β-arrestin2; assay: NanoBiT β-arrestin2 recruitment assay; assay type: cell-based, human
[5] = test system: GPR139-SmBit / β-arrestin1; assay: NanoBiT β-arrestin1 recruitment assay; assay type: cell-based, human
MHb neurons [6] = assay: Live calcium imaging; assay type: cell-based, mouse; settings: in words
[7] = test system: NAc neurons of Pdyn-Cre mice; assay type: cell-based, mouse; settings: 10 μM JNJ-3792165; in words
HiBit-GPR139 = assay: HiBiT-GPR139 surface abundance / internalization assay, HEK293T/17 cells; settings: 40 μM Dyngo-4a, 10 μM PitStop 2, 4 mM MβCD applied 15 min before; 40 μM Dyn A13; in words

For “adrenocorticotropic hormone (SYSMEHFRWGKPVGKKRRPVKVYPNGAEDESAEAFPLEF; Corticotropin; UniProt P01189 138-176, looked up) [ACTH]”, the “GPR139 coupling activity with Gα11” value (GPR139 / Gα11) was “did not show any significant coupling activity”, the “CalFluxVTN signal compared to control cells not expressing GPR139” value (GPR139 [1]; 10 μM, 3 independent experiments) was “significant signals” and the “competition with [3H]-JNJ-63533054 binding” value (GPR139 [2]) was “only modest binding”. The “GPR139 coupling activity with GαoA” value (GPR139 / GαoA) was “did not show any significant coupling activity”.

In the case of `C=CCN1CC[C@]23c4c5ccc(O)c4O[C@H]2C(=O)CC[C@@]3(O)[C@H]1C5` [naloxone], the “block of G protein activation by GPR139” value (GPR139 / Gα11; 100 µM Naloxone, 5 µM Dyn A17) is reported as “did not block G protein activation by GPR139” and the “effect on Dyn A17 inhibition of neuronal firing” value (MHb neurons [3]) is reported as “blocked”.

`C[C@H](NC(=O)CNC(=O)c1cccc(Cl)c1)c1ccccc1` [JNJ-63533054] was tested, and the “β-arrestin 2 recruitment to GPR139” value [4] was “did not observe recruitment of β-arrestins” and the “β-arrestin 1 recruitment to GPR139” value [5] was “did not observe recruitment of β-arrestins”.

For “L-enk: inactive Leu-enkephalin as a negative control”, the “GPR139 coupling activity with Gα11” value (GPR139 / Gα11) was “Neither did we observe G protein activation”, the “competition with [3H]-JNJ-63533054 binding” value (GPR139 [2]) was “no competition” and the “GPR139 coupling activity with GαoA” value (GPR139 / GαoA) was “Neither did we observe G protein activation”.

For `Cc1cccc(NC(=O)c2cc(C)n(Cc3c(Cl)cccc3Cl)n2)c1` [JNJ-3792165], the “effect of antagonist on peptide-induced Ca2+ responses” value (GPR139 [1]; 10 μM JNJ-3792165) was “blocked”, the “effect on Dyn A17-induced Ca2+ response” value (MHb neurons [6]) was “completely blocked” and the “effect on jGCaMP7s response to optogenetic stimulation” value [7] was “completely abolished”.

With α-MSH the “GPR139 coupling activity with Gα11” value (GPR139 / Gα11) was “did not show any significant coupling activity” and the “GPR139 coupling activity with GαoA” value (GPR139 / GαoA) was “did not show any significant coupling activity”.

In the case of methyl-beta-cyclodextrin [MβCD], the “effect on Dyn A13-mediated GPR139 internalization” value (HiBit-GPR139) is reported as “had no effect”.
